Measurements taken from patent publication US10626107B2, “Crystal form, salt type of substituted 2-hydro-pyrazole derivative and preparation method therefor” (CHIA TAI TIANQING PHARMACEUTICAL GROUP CO., LTD., priority 2016, dated 2020).
Like-named read-outs stand apart in the source and are kept apart here.

How the values were obtained:
[1] = test system: MCF-7 cells; experiment: Inhibition assay of the compound of formula (I) on the proliferation of MCF-7 cells (CellTiter-Glo); type: cell-based; settings: Homo sapiens, MCF7, 144 h, 6 days
Experimental: (§1) RPMI 1640 medium, fetal bovine serum and penicillin/streptomycin as antibiotics were purchased from Promega (Madison, Wis.). The MCF-7 cell line and the MDA-MB-436 cell line were purchased from the European Collection of Authenticated Cell Cultures (ECACC). Envision Multilabel Plate Reader (PerkinElmer).
(§2) MCF-7 cells were seeded in a black 384-well plate with 45 μL of cell suspension (containing 200 MCF-7 cells) per well. The cell plate was placed in a carbon dioxide incubator for overnight culture.
(§3) The test compounds were diluted 3 times to the 10th concentration with Bravo, i.e., diluted from 10 μM to 0.508 nM, and a duplicate-well experiment was set. The medium was added to the middle plate in an amount of 49 μL per well. The gradient-diluted compounds were transferred in an amount of 1 μL per well to the middle plate according to the corresponding positions, and the mixture was mixed evenly and transferred to the cell plate in an amount of 5 μL per well. The cell plate was incubated in a carbon dioxide incubator for 6 days.
(§4) Promega CellTiter-Glo reagent was added to the cell plate in an amount of 25 μL per well, and incubated for 10 minutes at room temperature to stabilize the luminescence signal. Reading was performed using a PerkinElmer Envision Multilabel Plate Reader.

[2] = Solubility tests in different vehicles (HPLC); type: physicochemical; settings: 26 °C, thermodynamic from solid, room temperature 25 to 27° C.
Experimental: Samples (about 2 mg) (if the sample was a salt, the required amount of the salt was calculated according to the salt factor in accordance with the criterion that the compound of formula (I) was 2 mg) were weighed respectively and added to a 1.5 mL glass vial. Different vehicles (1 mL) were then added respectively. The above-mentioned suspension was placed on a magnetic stirrer for stirring (room temperature 25 to 27° C.). After stirring for 24 hours, samples were taken. The samples were first centrifuged, and the supernatants were taken. After appropriate dilution according to the situation of the dissolution, the concentrations were determined by HPLC. The results were as follows:
Notes: • FaSSIF: to simulate the intestinal fluid in the small intestine of human in a hunger state before meal; • FeSSIF: to simulate the intestinal fluid in the small intestine of human in a full state after meal; • SGF: to simulate the gastric juice in the empty stomach of human in a hunger state

[3] = test system: MDA-MB-436 cells; experiment: Inhibition assay of the compound of formula (I) on the proliferation of MDA-MB-436 cells (CellTiter-Glo); type: cell-based; settings: Homo sapiens, 144 h, 6 days
Experimental: as §1
MDA-MB-436 cells were seeded in a black 384-well plate with 45 μL of cell suspension (containing 585 MDA-MB-436 cells) per well. The cell plate was placed in a carbon dioxide incubator for overnight culture.
as §3, §4

[4] = test system: MCF-7 breast cancer cells; experiment: Inhibition assay of the A crystal form of WX_1 on MCF-7 breast cancer cell proliferation (CellTiter-Glo); type: cell-based; settings: Homo sapiens, MCF7, 144 h; MCF-7 cells, 6 days
Experimental: RPMI 1640 medium, fetal bovine serum and penicillin/streptomycin as antibiotics were purchased from Promega (Madison, Wis.). The MCF-7 cell line was purchased from the European Collection of Authenticated Cell Cultures (ECACC). Envision MultiLabel Plate Reader (PerkinElmer).
as §2, §3
Promega CellTiter-Glo reagent was added to the cell plate in an amount of […] per well, and incubated for 10 minutes at room temperature to stabilize the luminescence signal. Reading was performed using a PerkinElmer Envision Multilabel Plate Reader.

[5] = test system: human lung cancer LU-01-0393 subcutaneous xenograft tumor; experiment: In vivo drug efficacy study (II): human lung cancer LU-01-0393 subcutaneous xenograft tumor model; design: species or system BALB/c nude mice; settings: 120.0 mg/kg PO QD × 3W
From the text: Cell line-derived xenograft (CDX) BALB/c nude mice that were female, 6- to 8-week old, weighed 17 to 20 g, and subcutaneously implanted with human tumor cell line derived from LU-01-0393 lung cancer patient were used. A total of 72 mice were needed and were purchased from Shanghai Xipuer-Bikai Experimental Animal Co., Ltd. Human lung cancer LU-01-0393 tumor (i.e., non-small cell lung cancer) was originally derived from a clinical sample of a surgical resection. It was defined as passage PO after being inoculated to nude mice, and the tumor of passage PO was re-inoculated to nude mice and was then defined as passage P1, and so forth. Passage was performed in nude mice. LU-01-0393-FP5 was obtained from the transplantation after the recovery of P4. This study would use the tumor tissue of passage FP6.
BALB/c nude mice that were female, 6- to 8-week old, and weighed approximately 17 to 20 g were used. The mice were maintained in separate ventilated cages in a special pathogen-free environment. All the cages, bedding and water were disinfected prior to use. All the animals were free to access a standard certified commercial laboratory diet. A total of 72 mice purchased from Shanghai Xipuer-Bikai Experimental Animal Co., Ltd. were used for the study. The LU-01-0393 FP6 tumor tissue was cut to 20 to 30 mm^3 and inoculated to the right back of each mouse to wait for the tumor growth. When the average tumor volume reached about 171 mm^3, the mice were randomized into groups and administered. The test compounds were orally administered daily, and the administration dosages were as shown in the above table. The tumor diameters were measured twice a week using a two-dimensional caliper. The tumor volumes were calculated by the following formula: V=0.5 a×b^2, wherein a and b were the long diameter and the short diameter of a tumor, respectively. The anti-tumor efficacy was determined by dividing the average increase of the tumor volumes of the animals treated with a compound by the average increase of the tumor volumes of the animals without being treated with the compound.

[6] = test system: human breast cancer MCF-7 subcutaneous xenograft tumor; type: in vivo
From the text: Cell line-derived xenograft (CDX) BALB/c nude mice that were female, 6- to 8-week old, weighed 20 g, and subcutaneously implanted with human tumor cell line derived from MCF-7 breast cancer patients were used. A total of 150 mice were needed, which were purchased from Beijing Vital River Laboratory Animal Technology Co., Ltd.
BALB/c nude mice that were female, 6- to 8-week old, and weighed approximately 20 g were used. The mice were maintained in separate ventilated cages (10 mice per cage) in a special pathogen-free environment. All the cages, bedding and water were disinfected prior to use. All the animals were free to access a standard certified commercial laboratory diet. A total of 150 mice were purchased from Beijing Vital River Laboratory Animal Technology Co., Ltd. for research. Each mouse was implanted subcutaneously with an estrogen tablets (0.18 mg/tablet, 60-day sustained release) in the left back. After 3 days, each mouse was implanted with tumor cells (10×10^6 in 0.2 mL of phosphate buffer) subcutaneously in the right back for tumor growth. Administration was started when the average tumor volume reached about 150 to 200 mm^3. The test compounds were orally administered daily, and the administration dosages were as shown in the above table. The tumor volumes were measured twice a week using a two-dimensional caliper. The volumes were expressed in cubic millimeters and calculated by the following formula: V=0.5 a×b^2, wherein a and b were the long diameter and short diameter of a tumor, respectively. The anti-tumor efficacy was determined by dividing the average increase of the tumor volumes of the animals treated with a compound by the average increase of the tumor volumes of the animals without being treated with the compound.

SMILES	IC50 [1] [nM]	solubility at 24 h ([2]; simulated gastric fluid, SGF, read-out: Solubility SGF) [µg/mL]	solubility at 24 h ([2]; FaSSIF, read-out: Solubility FaSSIF) [µg/mL]	solubility at 24 h ([2]; FeSSIF, read-out: Solubility FeSSIF) [µg/mL]	solubility at 24 h ([2]; water, water, H2O, read-out: Solubility H2O) [µg/mL]	IC50 [3] [nM]	IC50 [4] [nM]	Tumor volume Day 0 [5] [mm^3]	Tumor volume Day 7 [5] [mm^3]	Tumor volume Day 14 [5] [mm^3]	Tumor volume Day 21 [5] [mm^3]	Tumor volume Day 0 ([6]; 25.0 mg/kg PO QD × 3W) [mm^3]	Tumor volume Day 7 ([6]; 25.0 mg/kg PO QD × 3W) [mm^3]	Tumor volume Day 14 ([6]; 25.0 mg/kg PO QD × 3W) [mm^3]	Tumor volume Day 20 ([6]; 25.0 mg/kg PO QD × 3W) [mm^3]	Tumor volume Day 0 ([6]; 50.0 mg/kg PO QD × 3W) [mm^3]	Tumor volume Day 7 ([6]; 50.0 mg/kg PO QD × 3W) [mm^3]	Tumor volume Day 14 ([6]; 50.0 mg/kg PO QD × 3W) [mm^3]	Tumor volume Day 20 ([6]; 50.0 mg/kg PO QD × 3W) [mm^3]	tolerability ([6]; mouse, in vivo)
CC(C)c1c2cc(-c3nc(Nc4ccc(N5CCNCC5)cn4)ncc3F)ccc2nn1C [compound of formula (I)]	32.1	> 2000	13	1600	10	328														
CCN1CCN(Cc2ccc(Nc3ncc(F)c(-c4ccc5nn(C)c(C(C)C)c5c4)n3)nc2)CC1 [compound of formula (a), reference compound]	240					2100														
CC(=O)c1c(C)c2cnc(Nc3ccc(N4CCNCC4)cn3)nc2n(C2CCCC2)c1=O [Palbociclib]							88.2	170 ± 24	261 ± 38	266 ± 41	251 ± 34	153	203	252	222	153	180	197	137	intolerable
CCN1CCN(Cc2ccc(Nc3ncc(F)c(-c4cc(F)c5nc(C)n(C(C)C)c5c4)n3)nc2)CC1 [LY2835219, Abemaciclib]							185	172 ± 23	228 ± 26	255 ± 30	272 ± 36	153	155							
